Measured values: US10993957B2 (NuCana plc, priority 2011, dated 2021)
Where two headings read alike, the source gives them in different places.

Legend:
E. coli TP = E. coli TP (Escherichia coli, UniProt P07650); assay: Phosphorolysis by E. coli TP, HPLC; settings: 100 μM compound, room temperature, 0-40 min
Method: Reaction mixtures containing 100 μM test compound and recombinant TP or UP (human TP: 8.6 ng/μL; E. coli TP: 3.0 ng/μL; human UP: 4 ng/mL) in a total volume of 500 μL reaction buffer (10 mM TrisHCl; 300 μM NaCl; 1 mM EDTA; 2 mM KH2PO4/K2HPO4) were incubated at room temperature. At different time points (i.e. 0, 20, 40 min) 100 μL aliquots of the reaction mixtures were withdrawn and heated at 95° C. for 3 min to inactivate the enzyme. The resulting reaction products were separated on a reverse-phase RP-8 column (Merck, Darmstadt, Germany) and quantified by HPLC analysis (Alliance 2690, Waters, Milford, Mass.). […] UV-based detection was performed at 267 nm. The separation of Urd from uracil was performed by a linear gradient from 100% separation buffer (see above) to 60% separation buffer+40% acetonitrile (3 min 100% separation buffer; 6 min linear gradient of 100% separation buffer to 60% separation buffer+40% acetonitrile; 6 min 60% separation buffer+40% acetonitrile, followed by equilibration at 100% separation buffer). UV-based detection was performed at 258 nm.

FM3A/TK^− = assay: Cytostatic assay, FM3A/TK^− cells; assay type: cell-based; settings: Mus musculus, Table 1, read-out: CC50 FM3A/TK^−
HeLa/TK^− = assay: Cytostatic assay, HeLa/TK^− cells; assay type: cell-based; settings: Homo sapiens, HeLa
Description: The cell lines employed were L1210/0 (a leukemia cell line), FM3A/0 (a breast cancer cell line), Cem/0 (an acute lymphoblastic leukemia cell line) and HeLa (a cervical cell line).

[1] = Stability in buffer at pH 1 by 31P NMR; assay type: physicochemical; settings: 14 hours
Method: The stability of the prodrug CPF-373 towards hydrolysis at pH=1 was studied using in situ ^31P NMR (202 MHz). The ProTide CPF-373 (1) (2.6 mg) was dissolved in MeOD (0.1 mL) after which 0.5 mL buffer (pH=1) (prepared from equal parts of 0.2 M HCl and 0.2 M KCl) was added. Then the sample was transferred into an NMR tube, and a ^31P NMR experiment was performed at 37° C. recording the data every 12 minutes for 14 hours. Data were processed and analysed with the Bruker Topspin 2.1 program.
A chemical hydrolysis was evaluated under experimental conditions at pH 1 and pH 8 and monitored by ^31P NMR. During the assay (14 h) under acidic conditions (pH 1) only two peaks representing the two diastereoisomers were recorded.

carboxypeptidase Y = biological target: T1, carboxypeptidase Y (Saccharomyces cerevisiae, UniProt P00729); assay: Carboxypeptidase Y assay by in situ 31P NMR; assay type: in vitro ADME; settings: yeast (Saccharomyces cerevisiae), 5 mg/mL, pH 7.6
T1 construct: purchased Sigma-Aldrich
T1 sequence (P00729 112-532): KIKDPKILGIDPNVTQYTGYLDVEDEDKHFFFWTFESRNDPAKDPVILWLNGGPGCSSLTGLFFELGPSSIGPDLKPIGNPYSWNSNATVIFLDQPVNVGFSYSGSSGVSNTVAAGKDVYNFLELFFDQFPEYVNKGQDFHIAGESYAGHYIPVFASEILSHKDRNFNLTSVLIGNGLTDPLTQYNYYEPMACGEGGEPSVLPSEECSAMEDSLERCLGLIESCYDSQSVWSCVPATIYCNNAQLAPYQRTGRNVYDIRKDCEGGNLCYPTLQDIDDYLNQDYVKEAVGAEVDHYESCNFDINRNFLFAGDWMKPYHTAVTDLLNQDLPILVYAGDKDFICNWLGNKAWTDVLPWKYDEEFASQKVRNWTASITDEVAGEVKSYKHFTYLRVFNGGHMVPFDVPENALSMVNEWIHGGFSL
Method: The enzymatic stability of the prodrug CPF-373 towards carboxypeptidase Y was studied using in situ ^31P NMR (202 MHz). The experiment was carried out by dissolving CPF-373 (3.0 mg) in d6-acetone (150 μL) and adding TRIZMA buffer pH 7.6 (300 μL). The resulting solution was placed in an NMR tube and a ^31P-NMR experiment at 25° C. was recorded as the blank experiment. The enzyme Carboxypeptidase Y (0.2 mg) was solubilised in TRIZMA (150 μL) and added to the solution of the phosphoramidate derivative in the NMR tube. Next, the tube was placed in the NMR machine, which was set to run a ^31P-NMR experiment (64 scans) every 4 minutes for 14 hours at 25° C. Data were processed and analysed with the Bruker Topspin 2.1 program. Carboxypeptidase Y and TRIZMA buffer were purchased from Sigma-Aldrich.
The compound (1) was incubated with carboxypeptidase Y (also known as cathepsin A) in TRIZMA buffer and the conversion of (1) was monitored by ^31P NMR. For a better resolution original spectra (lower graphs) and deconvoluted ones (upper graphs) are shown.
A enzymatic study using a carboxypeptidase Y assay was performed in which compound CPF 581, carboxypeptidase Y, and Trizma buffer (pH 7.6) were dissolved in acetone-d6 and ^31P NMR spectrum (202 MHz) spectra were recorded at regular intervals (every 7 min) over 14 h. […]

Cem/TK^− = assay: Cytostatic assay, thymidine kinase-deficient CEM/TK^− cells; assay type: cell-based, human; settings: Homo sapiens, CEM-TK(-)

Chain of E. coli TP (P07650 whole entry): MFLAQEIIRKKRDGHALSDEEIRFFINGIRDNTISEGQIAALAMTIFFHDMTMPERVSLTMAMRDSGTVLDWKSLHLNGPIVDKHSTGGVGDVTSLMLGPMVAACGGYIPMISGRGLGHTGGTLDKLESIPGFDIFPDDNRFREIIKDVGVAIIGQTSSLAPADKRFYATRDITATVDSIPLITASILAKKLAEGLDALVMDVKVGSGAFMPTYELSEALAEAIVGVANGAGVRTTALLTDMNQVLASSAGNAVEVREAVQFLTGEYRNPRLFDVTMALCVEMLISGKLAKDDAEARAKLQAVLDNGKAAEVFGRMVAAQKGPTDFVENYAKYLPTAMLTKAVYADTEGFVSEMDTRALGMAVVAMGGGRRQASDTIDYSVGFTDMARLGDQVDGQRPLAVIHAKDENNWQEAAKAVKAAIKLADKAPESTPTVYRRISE

| Structure (SMILES) | Phosphorolysis by E. coli TP (E. coli TP) | CC50 (FM3A/TK^−) | CC50 (HeLa/TK^−; Table 1, read-out: CC50 HeLa/TK^−) | IC50 (HeLa/TK^−; Table 6, read-out: IC50 HeLa/TK^−) | Stability towards hydrolysis at pH 1 [1] | time to complete conversion of parent to the putative intermediate (carboxypeptidase Y) | IC50 (Cem/TK^−; Table 3, read-out: IC50 CEM/TK−) | IC50 (Cem/TK^−; Table 6, read-out: IC50 Cem/TK^−) |
| --- | --- | --- | --- | --- | --- | --- | --- | --- |
| O=c1[nH]c(=O)n([C@H]2C[C@H](O)[C@@H](CO)O2)cc1F [5-FdUrd, 5-fluoro-2′-deoxyuridine, reference compound] | rapidly converted | 0.7 ± 0.02 µM | – | – | – | – | – | – |
| C[C@H](NP(=O)(OC[C@H]1O[C@@H](n2cc(F)c(=O)[nH]c2=O)CC1O)Oc1cccc2ccccc12)C(=O)OCc1ccccc1 (stereo partly drawn) [CPF 373, 5-Fluoro-2′deoxyuridine-5′-O-[1-naphthyl (benzoxy-L-alaninyl)] phosphate] | fully stable | 0.74 ± 0.18 µM | 2.5 ± 1.3 µM | 2.5 ± 1.3 µM | full stability | ≤ 26 min | 0.32 µM | 0.31 ± 0.06 µM |
